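In this assay, cells in 96-well plates receive the compound at five concentrations for 48 hours. Endpoints are linearly interpolated between the surrounding concentrations. GI50: concentration for 50% inhibition of growth.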 Calls of active or inactive are those of the source. Cut-off read from the data, not from the text of the source: active = GI50 up to about 1.1 µM and inactive = higher.
Key:
Test in all cases: NCI anticancer screen, dose series, 48 h
786-0 = system: 786-0
A498 = system: A498
A549 = system: A549
ACHN = system: ACHN
BT-549 = system: BT-549
CAKI-1 = system: CAKI-1
CCRF-CEM = system: CCRF-CEM
HCC 2998 = system: HCC 2998
HCT-116 = system: HCT-116
HCT-15 = system: HCT-15
HL-60 = system: HL-60
HOP-62 = system: HOP-62
HOP-92 = system: HOP-92
HT-29 = system: HT-29
Hs-578T = system: Hs-578T
K562 = system: K562
KM12 = system: KM12
LOX IMVI = system: LOX IMVI
M14 = system: M14
MCF7 = system: MCF7
MDA-MB-231 = system: MDA-MB-231
MDA-MB-435 = system: MDA-MB-435
MDA-N = system: MDA-N
MOLT-4 = system: MOLT-4
NCI-H226 = system: NCI-H226
NCI-H23 = system: NCI-H23
NCI-H460 = system: NCI-H460
NCI/ADR-RES = system: NCI/ADR-RES
OVCAR-3 = system: OVCAR-3
OVCAR-4 = system: OVCAR-4
OVCAR-5 = system: OVCAR-5
OVCAR-8 = system: OVCAR-8
PC-3 = system: PC-3
RPMI-8226 = system: RPMI-8226
RXF 393 = system: RXF 393
SF-268 = system: SF-268
SF-295 = system: SF-295
SF-539 = system: SF-539
SK-MEL-28 = system: SK-MEL-28
SK-MEL-2 = system: SK-MEL-2
SK-MEL-5 = system: SK-MEL-5
SK-OV-3 = system: SK-OV-3
SN12C = system: SN12C
SNB-75 = system: SNB-75
SW-620 = system: SW-620
T47D = system: T47D
TK-10 = system: TK-10
U-251 = system: U-251
UACC-257 = system: UACC-257
UACC-62 = system: UACC-62
UO-31 = system: UO-31

For `Cc1ccc(NC(=O)/C(=N/N(C)C)C(C2OC(=O)c3ccccc32)[N+](=O)[O-])cc1` (stereo unspecified), the GI50 (786-0) was > 100 µM (inactive), the GI50 (A498) was > 100 µM (inactive) and the GI50 (A549) was > 100 µM (inactive). For the same molecule, the GI50 (ACHN) was > 100 µM (inactive), the GI50 (BT-549) was > 100 µM (inactive) and the GI50 (CAKI-1) was > 100 µM (inactive). For the same molecule, the GI50 (CCRF-CEM) was > 100 µM (inactive), the GI50 (HCC 2998) was > 100 µM (inactive) and the GI50 (HCT-116) was > 100 µM (inactive). For the same molecule, the GI50 (HCT-15) was greater than 100 µM, the GI50 (HL-60) was > 100 µM (inactive) and the GI50 (HOP-62) was > 100 µM (inactive). The GI50 (HOP-92) was > 100 µM (inactive), the GI50 (HT-29) was > 100 µM (inactive) and the GI50 (Hs-578T) was > 100 µM (inactive). The GI50 (K562) was > 100 µM (inactive), the GI50 (KM12) was > 100 µM (inactive) and the GI50 (LOX IMVI) was > 100 µM (inactive). The GI50 (M14) was > 100 µM (inactive), the GI50 (MCF7) was > 100 µM (inactive) and the GI50 (MDA-MB-231) was > 100 µM (inactive). For the same molecule, the GI50 (MDA-MB-435) was > 100 µM (inactive), the GI50 (MDA-N) was > 100 µM (inactive) and the GI50 (MOLT-4) was > 100 µM (inactive). The GI50 (NCI-H226) was > 100 µM (inactive), the GI50 (NCI-H23) was > 100 µM (inactive) and the GI50 (NCI-H460) was > 100 µM (inactive). The GI50 (NCI/ADR-RES) was > 100 µM (inactive), the GI50 (OVCAR-3) was > 100 µM (inactive) and the GI50 (OVCAR-4) was > 100 µM (inactive). For the same molecule, the GI50 (OVCAR-5) was > 100 µM (inactive), the GI50 (OVCAR-8) was > 100 µM (inactive) and the GI50 (PC-3) was > 100 µM (inactive). The GI50 (RPMI-8226) was > 100 µM (inactive), the GI50 (RXF 393) was > 100 µM (inactive) and the GI50 (SF-268) was > 100 µM (inactive). For the same molecule, the GI50 (SF-295) was > 100 µM (inactive), the GI50 (SF-539) was > 100 µM (inactive) and the GI50 (SK-MEL-28) was > 100 µM (inactive). The GI50 (SK-MEL-2) was > 100 µM (inactive), the GI50 (SK-MEL-5) was > 100 µM (inactive) and the GI50 (SK-OV-3) was > 100 µM (inactive). For the same molecule, the GI50 (SN12C) was > 100 µM (inactive), the GI50 (SNB-75) was > 100 µM (inactive) and the GI50 (SW-620) was > 100 µM (inactive). The GI50 (T47D) was > 100 µM (inactive), the GI50 (TK-10) was > 100 µM (inactive) and the GI50 (U-251) was > 100 µM (inactive). For the same molecule, the GI50 (UACC-257) was > 100 µM (inactive), the GI50 (UACC-62) was > 100 µM (inactive) and the GI50 (UO-31) was > 100 µM (inactive).

Reference: ChEMBL document CHEMBL1201862, “PubChem BioAssay data set” (2004)
